Experimental data taken from patent US8999966B2, “Compounds that are ERK inhibitors” (Merck Sharp & Dohme Corp., priority 2010, dated 2015).

Target: fully phosphorylated, active Mouse ERK2 protein (Mus musculus, UniProt P63085)
Assay: Active ERK2 assay (AERK2), IMAP format
Type: biochemical
Conditions: activated ERK2, IMAP fluorescence polarization, 30 μM ATP
Method: 14 μl of kinase buffer (10 mM Tris.HCl pH 7.2, 10 mM MgCl2, 0.01% Tween-20, 1 mM DTT) containing 0.4 ng unphosphorylated Mouse ERK2 protein can be added to each well of a black 384-well assay plate. […] DMSO concentration during initial incubation is 6.7%. ERK2 activity can be determined to be insensitive to DMSO concentrations up to 20%. ERK2 can then be activated and it's kinase activity can be measured by the addition of 10 μl kinase buffer with the following components (final concentration per reaction): 2 ng active (phosphorylated) human MEK1 protein and 4 μM (total) ERK2 IMAP substrate peptides (3.9 μM unlabeled IPTTPITTTYFFFK-CONH2 and 100 nM IPTTPITTTYFFFK(5-carboxyfluorescein)-CONH2) and 30 μM ATP. DMSO concentration during ERK activation can be 4%. After one hour, reactions can be terminated by addition of 60 μl IMAP detections beads in binding buffer (Molecular Devices). Binding can be allowed to equilibrate for 30 minutes before reading the plate on an LJL Analyst Fluorescence Polarization plate reader. […] Active compounds can be reconfirmed in an independent assay.
Activated ERK2 activity was also determined in the IMAP assay format using the procedure outlined above. 1 μl of 25× compound was added to 14 μl of kinase buffer containing 0.25 ng fully phosphorylated, active Mouse ERK2 protein. Following a 30 minute incubation, the reactions were initiated by addition of 10 μl of kinase buffer containing 1 μM ERK2 IMAP substrate peptide (0.9 μM unlabeled IPTTPITTTYFFFK-CONH2 and 100 nM IPTTPITTTYFFFK(5-carboxyfluorescein)-CONH2) and 30 μM ATP. Reactions proceeded for 30 minutes before termination by addition of 60 μl IMAP detection beads in binding buffer. Plates were read as above after 30 minute binding equilibration. Active compounds were reconfirmed in an independent assay.

fully phosphorylated, active Mouse ERK2 protein, sequence (P63085 whole entry): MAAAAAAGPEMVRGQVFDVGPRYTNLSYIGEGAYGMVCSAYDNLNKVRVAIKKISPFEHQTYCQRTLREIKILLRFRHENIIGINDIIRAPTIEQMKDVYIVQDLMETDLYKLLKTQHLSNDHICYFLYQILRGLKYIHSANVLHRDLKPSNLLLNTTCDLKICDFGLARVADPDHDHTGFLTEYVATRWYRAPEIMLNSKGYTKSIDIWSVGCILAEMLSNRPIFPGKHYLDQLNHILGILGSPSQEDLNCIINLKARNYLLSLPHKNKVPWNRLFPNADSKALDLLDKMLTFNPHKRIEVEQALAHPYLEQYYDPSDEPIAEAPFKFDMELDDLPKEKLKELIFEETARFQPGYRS

Compound: Fc1cccc(F)c1CN1CCC[C@@H](c2nc(-c3ccc4[nH]nc(-c5ccnc(F)c5F)c4c3)n[nH]2)C1 [Example 302, 5-[5-[1-[(2,6- DIFLUOROPHENYL)METHYL]- 3(R)-PIPERIDINYL]-1H- 1,2,4-TRIAZOL-3-YL]-3-(2,3- DIFLUORO-4-PYRIDINYL)- 1H-INDAZOLE]
- IC50: ≥ 504 nM

Compound: COc1cccc(F)c1CN1CCC[C@@H](c2nnc(-c3ccc4[nH]nc(-c5ccc6nn(C)cc6c5)c4c3)o2)C1 [Example 322, 5-[5-[1-[(2-FLUORO-6- METHOXYPHENYL)METHYL]- 3(R)-PIPERIDINYL]-1,3,4- OXADIAZOL-2-YL]-3-(2- METHYL-2H-INDAZOL-5- YL)-1H-INDAZOLE]
- IC50: 0.3 to 10.4 nM

Compound: Fc1cccc(F)c1CN1CCC[C@@H](c2cn(-c3ccc4[nH]nc(-c5ccnc6[nH]ccc56)c4c3)nn2)C1 [Example 248, 5-[4-[1-[(2,6- DIFLUOROPHENYL)METHYL]- 3(R)-PIPERIDINYL]-1H- 1,2,3-TRIAZOL-1-YL]-3-(1H PYRROLO[2,3-b]PYRIDIN-4- YL)-1H-INDAZOLE]
- IC50: ≥ 504 nM

Compound: Fc1cccc(F)c1CN1CCCC(c2ccn(-c3ccc4[nH]nc(-c5ccncc5)c4c3)n2)C1 (stereo not shown) [Example 367, 5-[3-[1-[(2,6- DIFLUOROPHENYL)METHYL]- 3-PIPERIDINYL]-1H- PYRAZOL-1-YL]-3-(4- PYRIDINYL)-1H-INDAZOLE]
- IC50: > 1000 nM

Compound: CC(C)Oc1ccc(-c2n[nH]c3ccc(-c4n[nH]c([C@@H]5CCCN(Cc6c(F)cccc6F)C5)n4)cc23)cc1 [Example 299, 5-[5-[1-[(2,6- DIFLUOROPHENYL)METHYL]- 3(R)-PIPERIDINYL]-1H- 1,2,4-TRIAZOL-3-YL]-3-[4-(1- METHYLETHOXY)PHENYL]- 1H-INDAZOLE]
- IC50: ≥ 504 nM

Compound: Clc1cc(-c2n[nH]c3ccc(-c4nnc(C5CCCN(Cc6ccccc6)C5)o4)cc23)ccn1 (stereo not shown) [Example 309, 3-(2-CHLORO-4-PYRIDINYL)- 5-[5-[1-(PHENYLMETHYL)-3- PIPERIDINYL]-1,3,4- OXADIAZOL-2-YL]-1H- INDAZOLE]
- IC50: > 1000 nM

Compound: COc1cccc(F)c1CN1CCC[C@@H](c2nnc(-c3ccc4[nH]nc(-c5ccc6occc6c5)c4c3)o2)C1 [Example 349, 3-(5-BENZOFURANYL)-5-[5- [1-[(2-FLUORO-6- METHOXYPHENYL)METHYL]- 3(R)-PIPERIDINYL]-1,3,4- OXADIAZOL-2-YL]-1H- INDAZOLE]
- IC50: ≥ 504 nM

Compound: Fc1cccc(F)c1CN1CCC[C@@H](c2nc(-c3ccc4[nH]nc(-c5ccc(C(F)(F)F)cc5)c4c3)n[nH]2)C1 [Example 301, 5-[5-[1-[(2,6- DIFLUOROPHENYL)METHYL]- 3(R)-PIPERIDINYL]-1H- 1,2,4-TRIAZOL-3-YL]-3-[4- (TRIFLUOROMETHYL)PHEN- YL]-1H-INDAZOLE]
- IC50: ≥ 504 nM

Compound: COc1cccc(F)c1CN1CC=CC[C@@H]1c1nc(-c2ccc3[nH]nc(-c4ccc5c(c4)CCO5)c3c2)n[nH]1 [Example 253, 3-(2,3-DIHYDRO-5- BENZOFURANYL)-5-[5-[1-[(2- FLUORO-6- METHOXYPHENYL)METHYL]- 1,2,3,6-TETRAHYDRO- 2(R)-PYRIDINYL]-1H-1,2,4- TRIAZOL-3-YL]-1H- INDAZOLE]
- IC50: ≥ 504 nM

Compound: COc1cccc(F)c1CN1CCC[C@@H](c2nnc(-c3ccc4[nH]nc(-c5ccc(O)c(NC(C)=O)c5)c4c3)o2)C1 [Example 314, N-[5-[5-[5-[1-[(2-FLUORO-6- METHOXYPHENYL)METHYL]- 3(R)-PIPERIDINYL]-1,3,4- OXADIAZOL-2-YL]-1H- INDAZOL-3-YL]-2- HYDROXYPHENYL] ACETAMIDE]
- IC50: 0.3 to 10.4 nM

Compound: c1cc(CN2CCC[C@@H](c3nnc(-c4ccc5[nH]nc(-c6ccc7occc7c6)c5c4)o3)C2)ncn1 [Example 351, 3-(5-BENZOFURANYL)-5-[5- [1-(4- PYRIMIDINYLMETHYL)- 3(R)-PIPERIDINYL]-1,3,4- OXADIAZOL-2-YL]-1H- INDAZOLE]
- IC50: > 1000 nM

Compound: Fc1ccccc1CN1CCOC(c2cn(-c3ccc4[nH]nc(-c5ccncc5)c4c3)nn2)C1 (stereo not shown) [Example 249, 5-[4-[4-[(2- FLUOROPHENYL)METHYL]- 2-MORPHOLINYL]-1H-1,2,3- TRIAZOL-1-YL]-3-(4- PYRIDINYL)-1H-INDAZOLE]
- IC50: 0.3 to 10.4 nM

Compound: c1csc(CN2CCC[C@@H](c3nc(-c4ccc5[nH]nc(-c6ccc7c(c6)CCO7)c5c4)n[nH]3)C2)c1 [Example 298, 3-(2,3-DIHYDRO-5- BENZOFURANYL)-5-[5-[1-(2- THIENYLMETHYL)-3(R)- PIPERIDINYL]-1H-1,2,4- TRIAZOL-3-YL]-1H- INDAZOLE]
- IC50: ≥ 504 nM

Compound: Cc1n[nH]c2ccc(-c3n[nH]c4ccc(-n5cc([C@@H]6CCCN(Cc7c(F)cccc7F)C6)nn5)cc34)cc12 [Example 247, 5-[4-[1-[(2,6- DIFLUOROPHENYL)METHYL]- 3(R)-PIPERIDINYL]-1H- 1,2,3-TRIAZOL-1-YL]-3′- METHYL-3,5′-BI-1H- INDAZOLE]
- IC50: ≥ 504 nM

Compound: Fc1cccc(F)c1CN1CC=CC[C@@H]1c1nc(-c2ccc3[nH]nc(-c4ccc5c(c4)CCO5)c3c2)n[nH]1 [Example 254, 5-[5-[1-[(2,6- DIFLUOROPHENYL)METHYL]- 1,2,3,6-TETRAHYDRO- 2(R)-PYRIDINYL]-1H-1,2,4- TRIAZOL-3-YL]-3-(2,3- DIHYDRO-5- BENZOFURANYL)-1H- INDAZOLE]
- IC50: ≥ 504 nM

Compound: Fc1cccc(F)c1CN1CCC[C@@H](c2nnc(-c3ccc4[nH]nc(-c5ccc6occc6c5)c4c3)o2)C1 [Example 348, 3-(5-BENZOFURANYL)-5-[5- [1-[(2,6- DIFLUOROPHENYL)METHYL]- 3(R)-PIPERIDINYL]-1,3,4- OXADIAZOL-2-YL]-1H- INDAZOLE]
- IC50: > 1000 nM

Compound: COc1cccc(F)c1CN1CCC[C@@H](c2nnc(-c3ccc4[nH]nc(-c5ccnc(C)c5)c4c3)o2)C1 [Example 336, 5-[5-[1-[(2-FLUORO-6- METHOXYPHENYL)METHYL]- 3(R)-PIPERIDINYL]-1,3,4- OXADIAZOL-2-YL]-3-(2- METHYL-4-PYRIDINYL)-1H- INDAZOLE]
- IC50: 0.3 to 10.4 nM

Compound: CC(C)Sc1ccc(-c2n[nH]c3ccc(-c4n[nH]c([C@@H]5CCCN(Cc6c(F)cccc6F)C5)n4)cc23)cc1 [Example 305, 5-[5-[1-[(2,6- DIFLUOROPHENYL)METHYL]- 3(R)-PIPERIDINYL]-1H- 1,2,4-TRIAZOL-3-YL]-3-[4-[(1- METHYLETHYL)THIO]PHEN- YL]-1H-INDAZOLE]
- IC50: ≥ 504 nM

Compound: c1ccc(CN2CCCC(c3nnc(-c4ccc5[nH]nc(-c6ccc7c(c6)CCO7)c5c4)o3)C2)cc1 (stereo not shown) [Example 307, 3-(2,3-DIHYDRO-5- BENZOFURANYL)-5-[5-[1- (PHENYLMETHYL)-3- (PIPERIDINYL]-1,3,4- OXADIAZOL-2-YL]-1H- INDAZOLE]
- IC50: > 1000 nM

Compound: Fc1ccccc1CN1CCC[C@@H](c2nnc(-c3ccc4[nH]nc(-c5ccc6occc6c5)c4c3)o2)C1 [Example 347, 3-(5-BENZOFURANYL)-5-[5- [1-[(2- FLUOROPHENYL)METHYL]- 3(R)-PIPERIDINYL]-1,3,4- OXADIAZOL-2-YL]-1H- INDAZOLE]
- IC50: ≥ 504 nM

Compound: Clc1cc(-c2n[nH]c3ccc(-c4nnc([C@@H]5CCCN(Cc6ccncn6)C5)o4)cc23)ccn1 [Example 360, 3-(2-CHLORO-4-PYRIDINYL)- 5-[5-[1-(4- PYRIMIDINYLMETHYL)- 3(R)-PIPERIDINYL]-1,3,4- OXADIAZOL-2-YL]-1H- INDAZOLE]
- IC50: ≥ 504 nM

Compound: c1cc2cc(-c3n[nH]c4ccc(-c5nnc([C@@H]6CCCN(CC7CCCCC7)C6)o5)cc34)ccc2o1 [Example 352, 3-(5-BENZOFURANYL)-5-[5- [1-(CYCLOHEXYLMETHYL)- 3(R)-PIPERIDINYL]-1,3,4- OXADIAZOL-2-YL]-1H- INDAZOLE]
- IC50: > 1000 nM
